Patent US20260209200A1, “SALTS OF A DIHYDROOROTATE DEHYDROGENASE (DHOD) INHIBITOR” (priority 2022, published 2026)

Legend:
[1] = Thermodynamic (equilibrium) solubility of PP-001 salts in FaSSIF; assay type: physicochemical; conditions: for Appearance after stirring for 24 hours / Thermodynamic solubility / Final pH: 3 mL FaSSIF, 37° C.; for Appearance after stirring for 24 hours: saturated; for Thermodynamic solubility: saturated (target 10 mg/mL), time point 2 hrs, pH 6.4 to 6.5; for Final pH: pH tested after 24 hours
Procedure: As the solid was completely dissolved, add more sample to keep it saturated. […] Then at the time point 2 hrs, 0.5 mL of sample solution was transferred into 1.5 mL centrifugation tube and centrifuged at 12,000 RPM for 10 min. The supernatant was diluted by 50% ACN suitable and analyzed by HPLC. The pH was tested after 24 hours.

[2] = Kinetic solubility of PP-001 salts in FaSSIF (HPLC); assay type: physicochemical; conditions: for Solubility at different time points, 0.5 h / Solubility at different time points, 1 h / Solubility at different time points, 2 h / Solubility at different time points, 24 h / Solubility at different time points, Initial / Appearance after stirring for 24 hours / Final pH: 4 mL FaSSIF, 25° C., target 2 mg/mL
Procedure: Approximately 8 mg (calculated as freebase) of each salt was weighed out into each glass vial and then 4 ml of FaSSIF was added (target concentration was 2 mg/mL). The sample was kept stirring on a magnetic stirrer at a speed of I 00 RPM under 25° C. Then at the time points of initial, 0.5 hr, 1 hr, 2 hrs and 24 hrs, 0.5 mL of sample solution was transferred into 1.5 mL centrifugation tube and centrifuged at 12,000 RPM for 10 min. The supernatant was diluted by 50% ACN suitable and analyzed by HPLC.
An HPLC method of testing solubility was performed as follows in Table A: […]

[3] = Bioavailability / pharmacokinetics of PP-001 salts after oral administration to rats; conditions: rat
Procedure: (§1) Suspensions were stirred continuously prior to dose.
A total of 27 male SD rats were used (n=3). 27 male SD rats assigned to the study were divided into 9 groups and a single type of formulated PP-001 salt was orally administered to each group of rats at dose level of 4 mg/kg (2 mL/kg dose volume). The diet was provided ad libitum throughout the in-life portion of the study, except for the fasting prior to dosing through 4 hours post dose. Drinking water was available daily ad libitum to all animals.
(§2) Plasma samples were collected via the jugular vein cannulation into EDTA-K3 tubes at 0.25, 0.5, 1, 2, 4, 8, and 24 hours post-dose administration. For analytical batch of single oral administration, plasma concentrations of salts of PP-001 were determined using LC-MS/MS with a lower limit of quantitation of 1 ng/mL.
(§3) The pharmacokinetic parameters of PP-001 salts were determined by non-compartmental analysis using WinNonlin Version 8.0 (Pharsight, Mountain View, CA). The area under the curve from the time of dosing to the last measurable concentration, AUC0-t, was calculated by the linear trapezoidal rule. The area under the concentration-time curve extrapolated to infinity, AUCinf, was calculated using a regression of the natural logarithm of the concentration values versus sampling time of the terminal slope (Lambda Z, k). This value is also used to calculate half-life (T1/2) as follows:
(§4) The bioavailability was calculated as follows:
(§5) [formula] • wherein PO is an oral administration and IV is an intravenous injection.

in vivo = conditions: dog; for AUC0-∞ / AUCExtr / AUCinf/D / AUClast / Cmax / MRT0-∞ / T1/2 / Tmax / F, bioavailability (BA) in dogs: 4 mg/kg
Procedure: as §1
A total of 6 male beagle dogs were used (n=3). 6 male dogs assigned to the study were divided into 2 periods with 6 dogs per period and two dosing cycles separated by a 7-day washout period. The diet was provided ad libitum throughout the in-life portion of the study, except for the fasting prior to dosing through 4 hours post dose. Drinking water was available daily ad libitum to all animals. Formulated PP-001 salts were administered to male beagle dogs by oral administration at 4 mg/kg with dosed volume at 2 mL/kg.
as §2, with “of 10” for “of 1”
as §3, §4, §5

[4] = FaSSIF, comparison from Table 6

Row | Appearance after stirring for 24 hours [1] | Thermodynamic solubility [1] [µg/mL] | Solubility at different time points, 0.5 h [2] [µg/mL] | Solubility at different time points, 1 h [2] [µg/mL] | Solubility at different time points, 2 h [2] [µg/mL] | Solubility at different time points, 24 h [2] [µg/mL] | Solubility at different time points, Initial [2] [µg/mL] | Appearance after stirring for 24 hours [2] | Increase in oral BA vs free acid in rats ([3]; in vivo, po) | AUC0-∞ ([3]; in vivo, po, 4 mg/kg) [ng·h/mL] | AUCExtr ([3]; in vivo, po, 4 mg/kg) [%] | AUCinf/D ([3]; in vivo, po, 4 mg/kg) [kg·ng·h/mL/mg] | AUClast ([3]; in vivo, po, 4 mg/kg) [ng·h/mL] | Cmax ([3]; in vivo, po, 4 mg/kg) [ng/mL] | F, bioavailability (BA) in rats ([3]; in vivo, po, 4 mg/kg) [%] | MRT0-∞ ([3]; in vivo, po, 4 mg/kg) [h] | Tmax ([3]; in vivo, po, 4 mg/kg) [h] | T1/2 ([3]; in vivo, po, 4 mg/kg, pH 6.8) [h] | Increase in oral BA vs free acid in dogs (in vivo) | AUC0-∞ (in vivo; po) [ng·h/mL] | Compound | other results
1 | Suspension | 2340 | 1700 | 2180 | 2190 | 2260 | 490 | clear solution | 0.7 | 10112 | 0.525 | 2528 | 10049 | 1144 | 5.8 | 5.31 | 4.00 | 2.96 | 4.0 | 180263 | [K+] [Potassium] | Increased solubility vs PP-001 free acid [1, 4]: > 100 % increase; Final pH [2]: 6.50; Increased bioavailability in dogs vs PP-001 free acid (in vivo; po): > 400 % increase; AUCExtr (in vivo; po): 1.59%; AUCinf/D (in vivo; po): 45066 kg·ng·h/mL/mg; AUClast (in vivo; po): 177228 ng·h/mL; Cmax (in vivo; po): 33967 ng/mL; MRT0-∞ (in vivo; po): 4.34 h; T1/2 (in vivo; po): 4.15 h; Tmax (in vivo; po): 1.17 h
2 |  | 5690 | 2010 | 1980 | 2000 | 1960 | 1320 |  | 1.3 | 17083 | 0.488 | 4271 | 16995 | 2217 |  | 4.83 | 3.00 | 3.02 |  |  | CNC[C@H](O)[C@@H](O)[C@H](O)[C@H](O)CO [Meglumine] | 
3 | Suspension | 30 |  |  |  |  |  |  | 0.7 | 9593 | 0.298 | 2398 | 9559 | 1495 | 5.5 | 4.81 | 3.33 | 2.70 |  |  | Benzathine | Final pH [1]: 6.43
4 | Suspension | 1850 | 1600 | 1730 | 1790 | 2010 | 410 | clear solution | 2.4 | 32873 | 0.743 | 8218 | 32626 | 6147 | 18.8 | 4.76 | 2.33 | 3.34 | 2.6 | 116660 | Sodium | Final pH [1]: 6.49; AUCExtr (in vivo; po): 2.16%; AUCinf/D (in vivo; po): 29165 kg·ng·h/mL/mg; AUClast (in vivo; po): 114152 ng·h/mL; Cmax (in vivo; po): 16867 ng/mL; F, bioavailability (BA) in dogs (in vivo; po): 59.6%; MRT0-∞ (in vivo; po): 5.28 h; T1/2 (in vivo; po): 4.24 h; Tmax (in vivo; po): 3.00 h
5 |  |  | 750 | 740 | 710 |  | 340 | suspension | 2.0 | 27157 | 1.03 | 6789 | 26827 | 3280 | 15.6 | 5.55 | 4.00 | 3.40 | 3.0 | 133409 | [Ca] [Calcium] | Final pH [2]: 6.51; Solubility at different time points, 24 h ([2]; listed as Ca): 700 µg/mL; Solubility at different time points, 24 h ([2]; listed as Ca cation): 700 µg/mL; Solubility compared to PP-001 free acid [2, 4]: reduced solubility compared to PP-001 free acid; Increase in bioavailability in dogs (in vivo; po): > 3 fold; AUCExtr (in vivo; po): 1.16%; AUCinf/D (in vivo; po): 33352 kg·ng·h/mL/mg; AUClast (in vivo; po): 131819 ng·h/mL; Cmax (in vivo; po): 22467 ng/mL; F, bioavailability (BA) in dogs (in vivo; po): 68.1%; MRT0-∞ (in vivo; po): 4.38 h; T1/2 (in vivo; po): 3.76 h; Tmax (in vivo; po): 1.67 h
6 |  |  |  |  |  |  |  |  | 1.3 | 17122 | 0.471 | 4281 | 17033 | 2490 | 9.82 | 5.33 | 4.00 | 2.89 |  |  | Zinc | 

Row | Compound | Appearance after stirring for 24 hours [1] | Thermodynamic solubility [1] [µg/mL] | Solubility at different time points, 0.5 h [2] [µg/mL] | Solubility at different time points, 1 h [2] [µg/mL] | Solubility at different time points, 2 h [2] [µg/mL] | Solubility at different time points, 24 h [2] [µg/mL] | Solubility at different time points, Initial [2] [µg/mL] | Appearance after stirring for 24 hours [2] | Increase in oral BA vs free acid in rats ([3]; in vivo, po) | AUC0-∞ ([3]; in vivo, po, 4 mg/kg) [ng·h/mL] | AUCExtr ([3]; in vivo, po, 4 mg/kg) [%] | AUCinf/D ([3]; in vivo, po, 4 mg/kg) [kg·ng·h/mL/mg] | AUClast ([3]; in vivo, po, 4 mg/kg) [ng·h/mL] | Cmax ([3]; in vivo, po, 4 mg/kg) [ng/mL] | F, bioavailability (BA) in rats ([3]; in vivo, po, 4 mg/kg) [%] | MRT0-∞ ([3]; in vivo, po, 4 mg/kg) [h] | Tmax ([3]; in vivo, po, 4 mg/kg) [h] | T1/2 ([3]; in vivo, po, 4 mg/kg, pH 6.8) [h] | Increase in oral BA vs free acid in dogs (in vivo) | AUC0-∞ (in vivo; po) [ng·h/mL] | other results
7 | NCCCC[C@H](N)C(=O)O [Lysine] | Suspension | 4650 | 2040 | 2060 | 2020 | 2090 | 1370 |  |  |  |  |  |  |  |  |  |  |  |  |  | AUC0-∞ ([3]; PO 4 mg/kg, mean n=3): 18430 ng·h/mL; AUCExtr ([3]; PO 4 mg/kg, mean n=3): 0.388%; AUCinf/D ([3]; PO 4 mg/kg, mean n=3): 4607 kg·ng·h/mL/mg; AUClast ([3]; PO 4 mg/kg, mean n=3): 18361 ng·h/mL; Cmax ([3]; PO 4 mg/kg, mean n=3): 2663 ng/mL; F, bioavailability (BA) in rats ([3]; PO 4 mg/kg, mean n=3): 10.6%; MRT0-∞ ([3]; PO 4 mg/kg, mean n=3): 4.97 h; Tmax ([3]; PO 4 mg/kg, mean n=3): 4.00 h; T1/2 ([3]; PO 4 mg/kg, suspension in pH 6.8 phosphate buffer, mean n=3): 2.85 h; Increase in oral BA vs free acid in rats ([3]; oral, ratio to PP-001 free acid): 1.4
8 | [Mg] [Magnesium] |  |  | 1520 | 1510 | 1440 |  | 330 | suspension | 1.7 | 23029 | 0.510 | 5757 | 22909 | 3163 | 13.2 | 4.87 | 3.33 | 3.01 |  |  | Solubility at different time points, 24 h ([2]; listed as Mg): 1010 µg/mL; Solubility at different time points, 24 h ([2]; listed as Mg cation): 1010 µg/mL
